Assay results from paper PMC13286573, “Exploration of precision coregulator TR-FRET identifies diverse signatures for LXR ligands relevant to discovery of nonlipogenic ABCA1 inducers” (eLife, 2026).
“Also recorded” adds a separate entry of the source.

Legend:
[1] = test system: sterol response element (SRE); assay: SRE-luc reporter assay in HepG2 cells; type: cell-based, human; conditions: concentrations ≤1 µM
Text: Our phenotypic high-throughput screen (HTS) approach to identify nonlipogenic ABCA1 Inducers (NLAI) originally used counterscreening with a SREBP1c-luciferase reporter (linked to the SREBF1 gene promoter) in human hepatocarcinoma HepG2 cells ([Ben Aissa et al., 2021]). Unwanted lipogenesis is mediated by LXR agonists via direct transcriptional activation and indirectly by the effects of SREBP1c ([Schultz et al., 2000]; [Brown and Goldstein, 1997]). SREBP1c enhances transcription of genes required for synthesis of fatty acids and TG and as the dominant isoform in liver is associated most closely with lipogenesis and TG elevation ([Brown and Goldstein, 1997]). […] Binding of SREBP1c to the sterol response element (SRE) induces transcription of lipogenic genes associated with elevated TG. To better model the lipogenic axis in hepatocytes, we use HepG2 cells stably transfected with a nanoluciferase reporter downstream of a SRE promoter (SRE-luc), activation of which requires SREBP1c maturation.
HepG2 cells were cotransfected with SRE (LDLR)-NlucP SuperPiggyBac Transposon and a separate Transposase plasmid (System Biosciences). Cells were expanded for multiple passages followed by selection with puromycin (1 μg/ml). Stable cells constitutively express GFP allowed for FACS enrichment and/or cell cloning. Initially, stable pools were compared to low expressing and high expressing enriched pools. The optimal pool was selected based on assay performance (Z’) and was grown and maintained as above, with the addition of 1.0 μg/mL of puromycin biweekly.
Cells were split into flasks containing CS medium (EMEM supplemented with 10% charcoal stripped FBS (Gibco A52567-01)) and 1% P/S and grown at 37 °C /5% CO2 for 48 hr before plating. Cells were plated in 384-well, white clear tissue culture plates (Greiner 781098) and allowed to grow at 37 °C /5% CO2 for 24 hr before medium was aspirated and compound dilutions prepared in CS medium were added. Following a 24 hr incubation, the medium was aspirated, and cells were lysed/luminescence quantified using the Nano-Glo Luciferase Assay System (Promega N1130).

[2] = test system: ABCA1; assay: ABCA1-luc reporter assay in CCF-STTG1 astrocytoma cells; type: cell-based, human
Text: Astrocytoma CCF-STTG1 cells, stably transfected with an ABCA1-promoter linked to a luciferase response element, provide a model for ABCA1 induction in astrocytes ([Ben Aissa et al., 2021]). […] Apparent inverse agonist activity in cell-based assays can result from ‘true’ inverse agonist recruitment of corepressors or from antagonist activity towards endogenous sterol LXR agonists. Although we use serum-stripped media, antagonism of endogenous LXR agonists cannot be ruled out.
Low passage CCF-STTG1 cells (20,000 cells/well) were seeded in 96-well plates in media containing charcoal-stripped FBS and incubated at 37 °C and 5% CO2 for 24 hr prior to a 24 hr treatment. All compounds were dissolved in DMSO, and final DMSO concentrations never exceeded 1%. After a 24 hr incubation period, add a volume of ONE-GLOEX Reagent that is equal to the volume of culture medium in each well and incubate for 3–5 min on the shaker. The luminescent activity of compounds ([…], 10-fold dilution) was examined using the ONE-GLOEX assay (Promega). […] The assays were performed in duplicates for each concentration, and the EC50 values were determined from non-linear regression analysis of the dose-response curve generated in GraphPad Prism 9.

[3] = test system: LXR; assay: Corepressor (NCOR2, SMRT2) binding to LXR, CRT, statements across isoforms; type: biochemical; conditions: monoplex CRT, absence of coactivator
[4] = test system: human volunteers; conditions: 2016, cited from earlier work
[5] = test system: LXR; design: method as in Belorusova et al., 2019; conditions: ref Belorusova et al., 2019; cited from earlier work
[6] = target: T1, LXRβ (Homo sapiens, UniProt P55055); assay: SRC-1 coactivator recruitment to LXRβ, coregulator TR-FRET (CRT); type: biochemical; design: The CRT selectivity assay incorporates GST-tagged LXR-LBD; purchased Thermo Fisher Scientific PV4660; conditions: biotin-SRC-1 CRT; read-out: Potency (EC50) for SRC-1 recruitment to LXRβ
T1 sequence (P55055 222-460 limits assumed): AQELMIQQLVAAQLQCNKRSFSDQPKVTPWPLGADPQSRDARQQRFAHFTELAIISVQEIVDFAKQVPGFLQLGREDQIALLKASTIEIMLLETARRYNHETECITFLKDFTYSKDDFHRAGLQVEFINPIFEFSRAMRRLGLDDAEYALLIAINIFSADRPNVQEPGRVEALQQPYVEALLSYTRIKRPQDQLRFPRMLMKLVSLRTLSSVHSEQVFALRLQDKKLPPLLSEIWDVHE

[7] = target: T2, LXRα (Homo sapiens, UniProt Q13133); assay: NCOR2 corepressor binding to LXRα, CRT; type: biochemical; design: The CRT selectivity assay incorporates GST-tagged LXR-LBD; purchased Thermo Fisher Scientific PV4657; conditions: ligand 1 µM, interpolated from concentration-response, normalized; heat map Figure 9A; read-out: NCOR2α, relative % activity at 1 μM
T2 sequence (Q13133 209-447 limits assumed): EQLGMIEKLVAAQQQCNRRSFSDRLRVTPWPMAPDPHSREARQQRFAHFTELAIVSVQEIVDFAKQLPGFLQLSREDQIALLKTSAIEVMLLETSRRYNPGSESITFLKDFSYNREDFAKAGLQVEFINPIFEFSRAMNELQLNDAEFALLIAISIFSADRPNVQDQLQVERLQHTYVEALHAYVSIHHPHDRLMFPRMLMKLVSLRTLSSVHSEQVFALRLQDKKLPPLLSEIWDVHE

[8] = target: T1, LXRβ; assay: NCOR2 corepressor binding to LXRβ, CRT; type: biochemical; design: The CRT selectivity assay incorporates GST-tagged LXR-LBD; purchased Thermo Fisher Scientific PV4660; conditions: ligand 1 µM, interpolated from concentration-response, normalized; heat map Figure 9A; read-out: NCOR2β, relative % activity at 1 μM
[9] = target: T2, LXRα; assay: SMRT2 corepressor binding to LXRα, CRT; type: biochemical; design: The CRT selectivity assay incorporates GST-tagged LXR-LBD; purchased Thermo Fisher Scientific PV4657; conditions: ligand 1 µM, interpolated from concentration-response, normalized; heat map Figure 9A; read-out: SMRT2α, relative % activity at 1 μM
[10] = target: T1, LXRβ; assay: SMRT2 corepressor binding to LXRβ, CRT; type: biochemical; design: The CRT selectivity assay incorporates GST-tagged LXR-LBD; purchased Thermo Fisher Scientific PV4660; conditions: ligand 1 µM, interpolated from concentration-response, normalized; heat map Figure 9A; read-out: SMRT2β, relative % activity at 1 μM
[11] = target: T2, LXRα; assay: Multiplex precision CRT (pCRT), SRC1 and NCOR2, LXRα; type: biochemical; design: The CRT selectivity assay incorporates GST-tagged LXR-LBD; purchased Thermo Fisher Scientific PV4657; conditions: presence of SRC1, saturating ligand
[12] = target: T1, LXRβ; assay: Multiplex precision CRT (pCRT), SRC1 and NCOR2, LXRβ; type: biochemical; design: The CRT selectivity assay incorporates GST-tagged LXR-LBD; purchased Thermo Fisher Scientific PV4660; conditions: presence of SRC1

SMILES: CC(C)(O)c1cn(-c2ccc(-c3cc(F)c(CO)c(S(C)(=O)=O)c3)cc2F)c(C(C)(C)c2c(Cl)cccc2Cl)n1 [XL041]
- Efficacy of SRE activation at concentrations ≤1 µM [1]: 20–25 % of T0
- Selectivity for ABCA1 induction versus SRE activation (potency correlation outliers) ([2]; CCF ABCA1-luc versus HepG2 SRE-luc): selectivity for ABCA1 induction
- ABCA1 induction response/phenotype in CCF cells ([2]; normalized to T0): partial agonist response
- Corepressor (NCOR2, SMRT2) displacement or stabilization, across LXR isoforms [3]: stabilized LXR complexes with corepressor bound; also recorded: strongly stabilized the corepressor-bound conformation
- Cmax ([4]; human, 2.5 mg/kg p.o., Day 14, ref Kirchgessner et al., read-out: Cmax, drug concentration in plasma): ~30 nM
- T½ ([4]; human, ref Kirchgessner et al.): ≈ 13 hr
- Adverse effects in clinical trials ([4]; multi-day dosing, healthy and statin-treated subjects, ref Kirchgessner et al.): elevated plasma and liver lipids and neutropenia
- ABCA1 expression in trial subjects ([4]; ref Katz et al., 2009, Kirchgessner et al.): increased ABCA1 expression in trial subjects
- Ligand behaviour in HDX-MS analysis (H12 conformation) [5]: act as an antagonist
- EC50 [6]: 10 nM
- activity at 1 µM [7]: 142%
- activity at 1 µM [8]: 129%
- activity at 1 µM [9]: 152%
- activity at 1 µM [10]: 153%
- Maximal signal for NCOR2-bound LXRα in pCRT [11]: significantly higher than zero
- NCOR2 displacement from LXRβ in pCRT [12]: fully displaced
